Patent EP4585216A1, “HETEROCYCLIC COMPOUNDS FOR THE TREATMENT OF FATTY LIVER DISEASE” (ScandiEdge Therapeutics AB, priority 2024, dated 2025)
Values belong to the molecule of their own block, whether it stands above or below them.

Experiments:
[1] = target: T1, pyruvate kinase liver (PKL) (Homo sapiens, UniProt P30613); assay: Pyruvate kinase activity in HepG2 PKM2 CRISPR KO protein lysate; assay type: biochemical; settings: for PK activity of HepG2 KO protein lysate (in words) / reduction in PK activity of HepG2 KO protein lysate: 10 µM; for PK activity of HepG2 KO protein lysate (in words): batches 4 and 5; for inhibition at 10 µM / reduction in PK activity of HepG2 KO protein lysate: compared to the control (DMSO); for inhibition at 10 µM: read-out: reduction in PK activity of HepG2 KO protein lysate
T1 construct: endogenous in cells; host or cells: HepG2 PKM2 CRISPR KO (HepG2 KO) cells; lysate in CelLytic M or treated whole cells
Procedure: (§1) HepG2 WT and HepG2 KO cells were lysed, and protein lysate was prepared with CelLytic M (C2978, Sigma-Aldrich) lysis buffer. Protein lysate was treated with 10 µM of the drugs and the pyruvate kinase activity on protein lysate was measured using Pyruvate Kinase Assay Kit (ab83432, abeam) following manufacturer's instruction. 2×10^4 HepG2 WT cells and 1×10^5 HepG2 KO cells were seeded into a 96-well plate for measuring pyruvate kinase activity in the cells. The cells were treated with 10-20µM of drugs for 4h and washed with 250µl PBS. Cells were lysed with 50 µl PK assay buffer (ab83432, abcam) and start reaction and kinetic O.D measurement was performed on 50µl PK assay buffer containing the assay component (ab83432, abcam). O.D values were measured with microplate reader (Hidex Sense Beta Plus) at 570nm wavelength. DMSO was used as control.
(§2) The effect of the target compounds was studied on liver cell line HepG2. HepG2 expresses two different pyruvate kinases (PK), pyruvate kinase muscle (PKM2) and pyruvate kinase liver (PKL). While most cells express PKM, liver cells further express PKL. […] In addition to HepG2 KO cell, HepG2 wild-type (HepG2 WT) cells were also used.

pyruvate kinase (PK) [2] = assay: Pyruvate kinase activity in HepG2 WT protein lysate; assay type: biochemical; settings: 10 µM; for PK activity of HepG2 WT protein lysate (in words): batches 4 and 5; for reduction in PK activity of HepG2 WT protein lysate: compared to the control (DMSO)
Procedure: as §1, §2

HepG2 cells = assay: TAG measurement in DNL steatosis model; assay type: cell-based; settings: for reduction in TAG/MTT ratio / TAG content (in words): 10 µM for 1 week; for reduction in TAG/MTT ratio: compared to the control (DMSO)
Procedure: HepG2 wild type cells were purchased from genome engineering company Synthego. Cells were maintained with growth media RPMI 1640 (R2405, Sigma-Aldrich) and supplemented with 10 % fetal bovine serum (FBS, F7524, Sigma-Aldrich), 1 % penicillin-streptomycin (P/S media, P4333, Sigma-Aldrich). Steatosis induction media was prepared as DMEM high glucose (D0819, Sigma-Aldrich) with 10% FBS, 1% P/S media supplemented with 10µg/ml insulin (I9278, Sigma-Aldrich), and 10µM T0901317 (T2320, Sigma-Aldrich) for one week. HepG2 cells were seeded 6×10^4 cells per well into a 96-well plate for TAG and MTT assay after steatosis and 1×10^6 cells per well into 6-well plate for western blot analysis after steatosis. HepG2 cells were incubated with steatosis induce media (SM) for one week by 3 day + 2 day + 2 day with total three times media exchange.
HepG2 cells were seeded at 6×10^4 cells per well into 96-well plate and induced steatosis for one week with designated concentration of small molecules (this will be referred to as a DNL steatosis model). After steatosis induction, cells were washed with 200 µl of PBS and triglyceride contents was measured by Triglyceride Assay Kit - Quantification (ab65336, Abeam) following manufacturer's instruction. Optical density (O.D) values were detected with microplate reader at 570 nm (Hidex Sense Beta Plus).
5 mg/ml MTT (M2128, Sigma-Aldrich) solution in PBS (10 µL) was added to each well for MTT assay. After 1 hr, MTT solution and all media were removed from the wells. 100 µl of DMSO was added and mixed to dissolve the formazan crystals. Cell viability was analysed by measuring the absorbance of the dissolved formazan in a microplate reader at a wavelength of 570 nm with microplate reader (Hidex Sense Beta Plus). DMSO was used as control.

[3] = target: T1, pyruvate kinase liver (PKL); assay: Pyruvate kinase activity in treated HepG2 PKM2 CRISPR KO cells; assay type: cell-based; settings: 10 µM for 4 h; for effect on PK activity in HepG2 KO cells (in words): compared to the control
Procedure: as §1, §2

pyruvate kinase (PK) [4] = assay: Pyruvate kinase activity in treated HepG2 WT cells; assay type: cell-based; settings: 10 µM for 4 h; for effect on PK activity in HepG2 WT cells (in words): compared to the control
Procedure: as §1, §2

T1 sequence (P30613 1-543 isoform P30613-2): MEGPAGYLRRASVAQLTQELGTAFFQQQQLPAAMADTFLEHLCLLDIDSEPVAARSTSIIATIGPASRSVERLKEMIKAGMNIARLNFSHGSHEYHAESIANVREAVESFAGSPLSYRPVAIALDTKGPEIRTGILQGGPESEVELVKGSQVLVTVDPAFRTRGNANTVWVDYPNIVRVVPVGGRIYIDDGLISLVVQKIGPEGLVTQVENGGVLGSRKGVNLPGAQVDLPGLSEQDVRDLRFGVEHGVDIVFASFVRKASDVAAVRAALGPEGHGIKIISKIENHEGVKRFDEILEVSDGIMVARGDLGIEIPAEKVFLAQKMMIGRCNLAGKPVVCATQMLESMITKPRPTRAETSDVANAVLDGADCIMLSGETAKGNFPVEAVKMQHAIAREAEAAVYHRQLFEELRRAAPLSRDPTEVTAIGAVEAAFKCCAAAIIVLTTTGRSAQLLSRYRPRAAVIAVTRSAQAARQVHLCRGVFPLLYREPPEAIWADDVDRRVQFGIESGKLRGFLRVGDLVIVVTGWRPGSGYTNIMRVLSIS

Compound: O=S(=O)(NCc1ccc(F)cc1)c1cc(O)c(O)cc1-c1ccc(O)cc1 [SET-66B, N-(4-fluorobenzyl)-4,4',5-trihydroxy-[1,1'-biphenyl]-2-sulfonamide]
PK activity of HepG2 KO protein lysate (in words) [1]: reduced the PK activity
PK activity of HepG2 WT protein lysate (in words) (pyruvate kinase (PK) [2]): reduced the PK activity
increase of the TAG/MTT ratio (HepG2 cells; 5 µM for 1 week): 6.0%

Compound: O=S(=O)(NCc1ccccc1)c1cc(O)c(O)cc1-c1cccc(O)c1 [SET-69B, N-benzyl-3',4,5-trihydroxy-[1,1'-biphenyl]-2-sulfonamide]
PK activity of HepG2 KO protein lysate (in words) [1]: reduced the PK activity
PK activity of HepG2 WT protein lysate (in words) (pyruvate kinase (PK) [2]): reduced the PK activity

Compound: O=S1(=O)c2cc(O)c(O)cc2-c2cc(O)ccc2N1Cc1ccccc1 [SET-69D, 6-benzyl-2,3,9-trihydroxy-6H-dibenzo[c,e][1,2]thiazine 5,5-dioxide]
PK activity of HepG2 KO protein lysate (in words) [1]: reduced the PK activity
PK activity of HepG2 WT protein lysate (in words) (pyruvate kinase (PK) [2]): reduced the PK activity

Compound: O=S(=O)(NCc1ccc(F)cc1)c1cc(O)c(O)cc1-c1cccc(O)c1 [SET-68B, N-(4-fluorobenzyl)-3',4,5-trihydroxy-[1,1'-biphenyl]-2-sulfonamide]
PK activity of HepG2 KO protein lysate (in words) [1]: reduced the PK activity
PK activity of HepG2 WT protein lysate (in words) (pyruvate kinase (PK) [2]): reduced the PK activity

Compound: COc1cc(Br)c(S(=O)(=O)NCc2cn(Cc3ccccc3)nn2)cc1OC [SET-35A, N-((1-benzyl-1H-1,2,3-triazol-4-yl)methyl)-2-bromo-4,5-dimethoxybenzenesulfonamide]
inhibition at 10 µM [1]: 4.4%

Compound: Cn1c2cc([S+](C)[O-])sc2c2cnn(Cc3cccc(N)c3)c(=O)c21 (stereo not shown) [TEPP46, reference compound]
effect on PK activity in HepG2 WT cells (in words) (pyruvate kinase (PK) [4]): increased activity

Compound: COc1cc(Br)c(S(=O)(=O)NCc2cn(CC(=O)c3ccccc3)nn2)cc1OC [SET-27A, 2-bromo-4,5-dimethoxy-N-((1-(2-xox-2-phenylethyl)-1H-1,2,3-triazol-4-yl)methyl) benzenesulfonamide]
inhibition at 10 µM [1]: 4.3%

Compound: O=S1(=O)c2cc(O)c(O)cc2-c2cc(O)ccc2N1Cc1ccc(F)cc1 [SET-68D, 6-(4-fluorobenzyl)-2,3,9-trihydroxy-6H-dibenzo[c,e][1,2]thiazine 5,5-dioxide]
PK activity of HepG2 WT protein lysate (in words) (pyruvate kinase (PK) [2]): highest inhibitory effect

The next lines start with results.

inhibition at 10 µM [1]: 70.2%
reduction in PK activity of HepG2 WT protein lysate (pyruvate kinase (PK) [2]): 42.6%
Compound: O=S1(=O)c2cc(O)c(O)cc2-c2cc(O)c(O)cc2N1Cc1ccccc1 [SET-09, 6-benzyl-2,3,8,9-tetrahydroxy-6H-dibenzo[c,e][1,2]thiazine 5,5-dioxide]
reduction in TAG/MTT ratio (HepG2 cells): 21.3%

inhibition at 10 µM [1]: 29.4%
effect on PK activity in HepG2 KO cells (in words) [3]: did not affect the PK activity
reduction in PK activity of HepG2 WT protein lysate (pyruvate kinase (PK) [2]): 28.7%
Compound: O=S1(=O)Nc2cc(O)c(O)cc2-c2cc(O)c(O)cc21 [SET-10, 2,3,8,9-tetrahydroxy-6H-dibenzo[c,e][1,2]thiazine 5,5-dioxidee]
effect on PK activity in HepG2 WT cells (in words) (pyruvate kinase (PK) [4]): did not affect the PK activity

effect on PK activity in HepG2 KO cells (in words) [3]: did not affect the PK activity
Compound: COc1cc2c(cc1OC)N(Cc1ccccc1)S(=O)(=O)c1cc(OC)c(OC)cc1-2 [SET-08, 6-benzyl-2,3,8,9-tetramethoxy-6H-dibenzo[c,e][1,2]thiazine 5,5-dioxide]
effect on PK activity in HepG2 WT cells (in words) (pyruvate kinase (PK) [4]): did not affect the PK activity

inhibition at 10 µM [1]: 70.2%
reduction in PK activity of HepG2 WT protein lysate (pyruvate kinase (PK) [2]): 15.8%
Compound: O=S(=O)(NCc1ccc(F)cc1)c1cc(O)c(O)cc1-c1ccc(O)c(O)c1 [SET-13, N-(4-fluorobenzyl)-3',4,4',5-tetrahydroxy-[1,1'-biphenyl]-2-sulfonamide]
reduction in TAG/MTT ratio (HepG2 cells): 21.9%

reduction in PK activity of HepG2 KO protein lysate [1]: 8.8%
reduction in PK activity of HepG2 WT protein lysate (pyruvate kinase (PK) [2]): 11.7%
Compound: COc1cc2c(cc1OC)S(=O)(=O)N(Cc1ccccc1)c1cc(C(F)(F)F)ccc1-2 [SET-61, 6-benzyl-2,2-dimethoxy-8-(trifluoromethyl)-6H-dibenzo[c,e][1,2]thiazine 5,5-dioxide]

inhibition at 10 µM [1]: 17.2%
Compound: O=S(=O)(NCc1ccccc1)c1cc(O)c(O)cc1-c1ccc(C(F)(F)F)cc1 [SET-60, N-benzyl-4,5-dihydroxy-4'-(trifluoromethyl)-[1,1'-biphenyl]-2-sulfonamide]
TAG content (in words) (HepG2 cells): reduced TAG content
reduction in TAG/MTT ratio (HepG2 cells): 16.3%

inhibition at 10 µM [1]: 35.2%
reduction in PK activity of HepG2 WT protein lysate (pyruvate kinase (PK) [2]): 10.7%
Compound: O=S(=O)(NCc1ccc(F)cc1)c1cc(O)c(O)cc1-c1ccc(C(F)(F)F)cc1 [SET-57, N-(4-fluorobenzyl)-4,5-dihydroxy-4'-(trifluoromethyl)-[1,1'-biphenyl]-2-sulfonamide]
TAG content (in words) (HepG2 cells): reduced TAG content
reduction in TAG/MTT ratio (HepG2 cells): 15.6%

inhibition at 10 µM [1]: 32.4%
reduction in PK activity of HepG2 WT protein lysate (pyruvate kinase (PK) [2]): 33.8%
Compound: COc1cc2c(cc1OC)S(=O)(=O)N(Cc1ccc(F)cc1)c1cc(C(F)(F)F)ccc1-2 [SET-58, 6-(4-fluorobenzyl)-2,3-dimethoxy-8-(trifluoromethyl)-6H-dibenzo[c,e][1,2]thiazine 5,5-dioxide]
TAG content (in words) (HepG2 cells): reduced TAG content

inhibition at 10 µM [1]: 8%
Compound: COc1cc(-c2ccc(C(F)(F)F)cc2)c(S(=O)(=O)NCc2ccccc2)cc1OC [SET-26, N-benzyl-4,5-dimethoxy-4'-(trifluoromethyl)-[1,1'-biphenyl]-2-sulfonamide]

reduction in PK activity of HepG2 KO protein lysate [1]: 11.1%
reduction in PK activity of HepG2 WT protein lysate (pyruvate kinase (PK) [2]): 13.3%
Compound: O=S1(=O)c2cc(O)c(O)cc2-c2ccc(C(F)(F)F)cc2N1Cc1ccc(F)cc1 [SET-59, 6-(4-fluorobenzyl)-2,2-dihydroxy-8-(trifluoromethyl)-6H-dibenzo[c,e][1,2]thiazine 5,5-dioxide]
TAG content (in words) (HepG2 cells): reduced TAG content

inhibition at 10 µM ([3]; HepG2, read-out: inhibition of PK activity in HepG2 KO cells): 7.5%
Compound: COc1ccc(CN2c3cc(OC)c(OC)cc3-c3cc(OC)c(OC)cc3S2(=O)=O)cc1 [SET-18, 2,3,8,9-tetramethoxy-6-(4-methoxybenzyl)-6H-dibenzo[c,e][1,2] thiazine 5,5-dioxide]
inhibition of PK activity in HepG2 WT cells (pyruvate kinase (PK) [4]): 6.2%

inhibition at 10 µM [1]: 59.1%
reduction in PK activity of HepG2 WT protein lysate (pyruvate kinase (PK) [2]): 25.4%
Compound: O=S(=O)(NCc1ccccc1)c1cc(O)c(O)cc1-c1ccc(O)c(O)c1 [SET-15, N-benzyl-3',4,4',5-tetrahydroxy-[1,1'-biphenyl]-2-sulfonamide]
reduction in TAG/MTT ratio (HepG2 cells): 26.8%
